7 compounds from patent US9073855B2, “BCL-2 selective apoptosis-inducing agents for the treatment of cancer and immune diseases” (AbbVie Inc., priority 2008, dated 2015) can be followed below.

Structures are written as SMILES.

The test system of one assay is FL5.12/Bcl-2 cells. The assay can be described thus: FL5.12/Bcl-2 cell viability assay under IL-3 withdrawal (CellTitre Glo). The class given is cell-based, murine. The following applies: Mus musculus, IL-3 withdrawn 48 hrs, then 24 hrs with compound. An outline of the steps:
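Viability measured by CellTitre Glo after FL5.12/Bcl-2 murine cells, starved of IL-3 for 48 hrs, were treated with compounds for another 24 hrs. Killing reflects inhibition of Bcl-2 sequestration of Bim and Puma.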

A further assay addresses GST-Bcl-XL (Homo sapiens, UniProt Q07817). Kind of assay: TR-FRET binding assay, GST-Bcl-XL with F-Bak peptide probe. The note with it: TR-FRET Binding Affinity, GST-Bcl-XL, F-Bak peptide probe. In a few lines:
(§1)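 Competitive TR-FRET: GST-fusion protein, fluorescent Bak peptide probe and Tb-labelled anti-GST antibody incubated with compound dilution series (starting 50 μM as 2× stock, 10% DMSO) for 3 h at RT. Excitation 340/35 nm; Ki derived via Wang's exact competitive-binding equation.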
(In general: In TR-FRET formats the signal depends on donor and acceptor labels being close together.)

The target in a further assay is GST-Bcl-2 (Homo sapiens, UniProt P10415). The assay can be described thus: TR-FRET binding assay, GST-Bcl-2 with F-Bak peptide probe. The following applies: TR-FRET Binding Affinity, GST-Bcl-2, F-Bak peptide probe. In a few lines: as §1
Sequence of GST-Bcl-2 (P10415 whole entry): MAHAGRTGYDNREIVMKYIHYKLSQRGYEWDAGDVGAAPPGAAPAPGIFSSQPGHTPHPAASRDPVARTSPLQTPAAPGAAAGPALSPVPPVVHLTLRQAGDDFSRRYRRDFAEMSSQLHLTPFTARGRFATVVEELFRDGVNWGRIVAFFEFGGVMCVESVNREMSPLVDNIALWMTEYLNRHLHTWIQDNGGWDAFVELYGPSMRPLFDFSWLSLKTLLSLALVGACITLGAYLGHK

Sequence of GST-Bcl-XL (Q07817 whole entry, the tested form may be a part): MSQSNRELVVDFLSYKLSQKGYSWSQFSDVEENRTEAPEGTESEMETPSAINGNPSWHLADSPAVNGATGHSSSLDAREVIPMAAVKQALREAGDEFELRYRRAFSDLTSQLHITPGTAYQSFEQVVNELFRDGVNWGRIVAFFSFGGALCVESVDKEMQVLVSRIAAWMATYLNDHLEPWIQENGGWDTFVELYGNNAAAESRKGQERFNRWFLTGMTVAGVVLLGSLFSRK

As to `CN(C)CCOc1ccc(-c2ccc(Cl)cc2)c(CN2CCN(c3ccc(C(=O)NS(=O)(=O)c4ccc(NN5CCN(C)CC5)c([N+](=O)[O-])c4)c(Oc4cccc5[nH]ccc45)c3)CC2)c1` [Example 274, 4-[4-({4′-chloro-4-[2-(dimethylamino)ethoxy]-1,1′-biphenyl-2-yl}methyl)piperazin-1-yl]-2-(1H-indol-4-yloxy)-N-({4-[(4-methylpiperazin-1-yl)amino]-3-nitrophenyl}sulfonyl)benzamide], the EC50 in the assay on FL5.12/Bcl-2 cells came to 155 nM. The figures for the Ki at GST-Bcl-XL and at GST-Bcl-2 were 32.9 nM and 0.135 nM, respectively.
With `CC1(C)CCC(CN2CCN(c3ccc(C(=O)NS(=O)(=O)c4ccc(NCC5CCS(=O)(=O)C5)c([N+](=O)[O-])c4)c(Oc4ccc5[nH]ccc5c4)c3)CC2)=C(c2ccc(Cl)cc2)C1` (stereo not drawn) [Example 275, 4-(4-{[2-(4-chlorophenyl)-4,4-dimethylcyclohex-1-en-1-yl]methyl}piperazin-1-yl)-N-[(4-{[(1,1-dioxidotetrahydrothien-3-yl)methyl]amino}-3-nitrophenyl)sulfonyl]-2-(1H-indol-5-yloxy)benzamide], the half-maximal effective concentration (EC50) with FL5.12/Bcl-2 cells amounted to 38 nM. Moreover, the Ki on GST-Bcl-XL is greater than 660 nM; on GST-Bcl-2, 0.097 nM.
On to `CC1(C)CCC(CN2CCN(c3ccc(C(=O)NS(=O)(=O)c4ccc(NC5CCS(=O)(=O)C5)c([N+](=O)[O-])c4)c(Oc4ccc5[nH]ccc5c4)c3)CC2)=C(c2ccc(Cl)cc2)C1` (stereo not drawn) [Example 276, 4-(4-{[2-(4-chlorophenyl)-4,4-dimethylcyclohex-1-en-1-yl]methyl}piperazin-1-yl)-N-({4-[(1,1-dioxidotetrahydrothien-3-yl)amino]-3-nitrophenyl}sulfonyl)-2-(1H-indol-5-yloxy)benzamide], for which the EC50 in the assay on FL5.12/Bcl-2 cells was 62.2 nM. Also, the values for the inhibition constant (Ki) on GST-Bcl-XL and on GST-Bcl-2 were 381 nM and 0.144 nM, respectively.
For `CC1(C)CCC(CN2CCN(c3ccc(C(=O)NS(=O)(=O)c4ccc(NCC5CCOCC5)c(C(F)(F)F)c4)c(Oc4ccc5[nH]ccc5c4)c3)CC2)=C(c2ccc(Cl)cc2)C1` [Example 277, 4-(4-{[2-(4-chlorophenyl)-4,4-dimethylcyclohex-1-en-1-yl]methyl}piperazin-1-yl)-2-(1H-indol-5-yloxy)-N-{[4-[(tetrahydro-2H-pyran-4-ylmethyl)amino]-3-(trifluoromethyl)phenyl]sulfonyl}benzamide], in the assay on FL5.12/Bcl-2 cells, the EC50 is greater than 500 nM. The Ki on GST-Bcl-XL was greater than 660 nM; at GST-Bcl-2, 29.7 nM.
In the case of `CC1(C)CCC(CN2CCN(c3ccc(C(=O)NS(=O)(=O)c4ccc(CCC5OCCO5)c([N+](=O)[O-])c4)c(Oc4ccc5[nH]ccc5c4)c3)CC2)=C(c2ccc(Cl)cc2)C1` [Example 278, 4-(4-{[2-(4-chlorophenyl)-4,4-dimethylcyclohex-1-en-1-yl]methyl}piperazin-1-yl)-N-({4-[2-(1,3-dioxolan-2-yl)ethyl]-3-nitrophenyl}sulfonyl)-2-(1H-indol-5-yloxy)benzamide], the EC50 with FL5.12/Bcl-2 cells is 153 nM. Further, the Ki on GST-Bcl-XL was greater than 660 nM; at GST-Bcl-2, 0.71 nM.
For `CC1(C)CCC(CN2CCN(c3ccc(C(=O)NS(=O)(=O)c4ccc(OCC5CCOCC5)c([N+](=O)[O-])c4)c(Oc4ccc5[nH]ccc5c4)c3)CC2)=C(c2ccc(Cl)cc2)C1` [Example 279, 4-(4-{[2-(4-chlorophenyl)-4,4-dimethylcyclohex-1-en-1-yl]methyl}piperazin-1-yl)-2-(1H-indol-5-yloxy)-N-{[3-nitro-4-(tetrahydro-2H-pyran-4-ylmethoxy)phenyl]sulfonyl}benzamide], the EC50 with FL5.12/Bcl-2 cells is 16.2 nM. The Ki at GST-Bcl-XL is greater than 660 nM; on GST-Bcl-2 it was 0.095 nM.
For `CC1(C)CCC(CN2CCN(c3ccc(C(=O)NS(=O)(=O)c4ccc(NCCN5CCNC(=O)C5)c([N+](=O)[O-])c4)c(Oc4cccc5[nH]ccc45)c3)CC2)=C(c2ccc(Cl)cc2)C1` [Example 280, 4-(4-{[2-(4-chlorophenyl)-4,4-dimethylcyclohex-1-en-1-yl]methyl}piperazin-1-yl)-2-(1H-indol-4-yloxy)-N-[(3-nitro-4-{[2-(3-oxopiperazin-1-yl)ethyl]amino}phenyl)sulfonyl]benzamide], the EC50 in the assay on FL5.12/Bcl-2 cells is 247 nM. For the same compound, the Ki came to 195 nM at GST-Bcl-XL and 0.178 nM on GST-Bcl-2.

What is called EC50 is the concentration at which the effect is half-maximal. A word on the Ki: it is a measure of affinity in units of concentration, obtained from inhibition or displacement.
